In ChEMBL document CHEMBL1201862, “PubChem BioAssay data set” (2004):
Activity calls are given as the source filed them.

Experiments:
[1] = test system: Streptococcus sp. 'group A'; experiment: Streptococcus pyogenes SK(-)GAS viability under kanamycin – luminescence, BacTiterGlo, confirmation, counter-screen for streptokinase expression inhibitor project, dose response (AID 1900); assay type: functional, organism-based
[2] = test system: Streptococcus; experiment: Luminescence Microorganism-Based Dose Response Follow up to Identify Compounds Cytotoxic to Streptococcus. [Related pubchem assays: 1677 (Project Summary), 1915, 1914, 1902 (Retest at Dose), 1900 (Counter Screen), 1662 (Primary HTS)]; assay type: functional, organism-based
[3] = target: T1, Streptokinase A (Streptococcus pyogenes serotype M1, UniProt P10520); experiment: viability-normalized secreted streptokinase activity reduction – plasminogen activation absorbance, OD405, dose response (AID 1914); assay type: functional, Streptococcus pyogenes M1 GAS;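 note: secreted streptokinase activity via plasminogen activation per viability signal from cell pellet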
T1 sequence (P10520 whole entry): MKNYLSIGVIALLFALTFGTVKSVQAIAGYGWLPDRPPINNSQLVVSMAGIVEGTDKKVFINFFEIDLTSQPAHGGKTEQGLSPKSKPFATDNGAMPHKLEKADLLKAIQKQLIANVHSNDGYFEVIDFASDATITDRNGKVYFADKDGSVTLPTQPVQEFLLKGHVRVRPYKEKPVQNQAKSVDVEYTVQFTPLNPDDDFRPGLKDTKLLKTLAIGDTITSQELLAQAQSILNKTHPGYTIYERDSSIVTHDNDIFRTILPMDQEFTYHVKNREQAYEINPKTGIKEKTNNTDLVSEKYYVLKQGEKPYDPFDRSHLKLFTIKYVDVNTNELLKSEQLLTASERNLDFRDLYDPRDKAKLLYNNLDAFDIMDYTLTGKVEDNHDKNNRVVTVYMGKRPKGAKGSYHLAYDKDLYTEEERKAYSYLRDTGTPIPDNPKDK

[4] = test system: Streptococcus; experiment: GAS UMAA2166 growth inhibition – luminescence, BacTiterGlo, counter-screen for streptokinase expression inhibitor project, dose response (AID 1915); assay type: functional, organism-based;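 note: potency for reduction of bacterial viability or growth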
[5] = target: Disintegrin and metalloproteinase domain-containing protein 17 (Homo sapiens, UniProt P78536); experiment: inhibition of ADAM17 substrate cleavage – biochemical, quenched FRET substrate, counter-screen for ADAM10 exosite inhibitor project, dose response (AID 743253)
Chain of Disintegrin and metalloproteinase domain-containing protein 17 (P78536 whole entry, the tested form may be a part): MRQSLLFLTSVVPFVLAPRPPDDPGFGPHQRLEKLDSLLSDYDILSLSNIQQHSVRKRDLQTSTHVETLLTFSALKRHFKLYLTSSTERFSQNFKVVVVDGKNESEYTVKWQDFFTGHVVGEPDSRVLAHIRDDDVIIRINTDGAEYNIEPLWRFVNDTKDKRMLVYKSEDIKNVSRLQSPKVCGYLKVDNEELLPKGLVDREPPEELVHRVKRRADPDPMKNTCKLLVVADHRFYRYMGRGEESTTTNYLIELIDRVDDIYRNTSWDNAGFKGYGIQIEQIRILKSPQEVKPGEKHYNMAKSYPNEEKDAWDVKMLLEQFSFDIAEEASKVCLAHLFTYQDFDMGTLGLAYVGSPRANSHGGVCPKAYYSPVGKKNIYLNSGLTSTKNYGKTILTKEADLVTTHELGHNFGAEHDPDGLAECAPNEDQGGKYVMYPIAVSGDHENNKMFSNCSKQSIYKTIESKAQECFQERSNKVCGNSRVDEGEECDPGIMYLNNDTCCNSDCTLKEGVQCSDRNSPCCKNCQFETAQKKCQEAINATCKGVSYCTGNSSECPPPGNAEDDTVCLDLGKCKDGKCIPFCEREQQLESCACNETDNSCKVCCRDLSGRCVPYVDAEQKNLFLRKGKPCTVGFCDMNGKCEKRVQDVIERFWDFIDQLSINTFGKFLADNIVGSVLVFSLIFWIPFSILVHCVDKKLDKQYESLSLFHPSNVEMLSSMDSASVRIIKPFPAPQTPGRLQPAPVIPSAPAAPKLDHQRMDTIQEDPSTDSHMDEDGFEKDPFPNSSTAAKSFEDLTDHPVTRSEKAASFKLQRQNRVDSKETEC

[6] = target: T2, Leucine aminopeptidase (Plasmodium falciparum 3D7, UniProt Q8IL11); experiment: P. falciparum M17LAP inhibitors, primary screen, biochemical, fluorogenic H-Leu-NHMec substrate, 1536-well (AID 1619); assay type: functional
T2 sequence (Q8IL11 whole entry): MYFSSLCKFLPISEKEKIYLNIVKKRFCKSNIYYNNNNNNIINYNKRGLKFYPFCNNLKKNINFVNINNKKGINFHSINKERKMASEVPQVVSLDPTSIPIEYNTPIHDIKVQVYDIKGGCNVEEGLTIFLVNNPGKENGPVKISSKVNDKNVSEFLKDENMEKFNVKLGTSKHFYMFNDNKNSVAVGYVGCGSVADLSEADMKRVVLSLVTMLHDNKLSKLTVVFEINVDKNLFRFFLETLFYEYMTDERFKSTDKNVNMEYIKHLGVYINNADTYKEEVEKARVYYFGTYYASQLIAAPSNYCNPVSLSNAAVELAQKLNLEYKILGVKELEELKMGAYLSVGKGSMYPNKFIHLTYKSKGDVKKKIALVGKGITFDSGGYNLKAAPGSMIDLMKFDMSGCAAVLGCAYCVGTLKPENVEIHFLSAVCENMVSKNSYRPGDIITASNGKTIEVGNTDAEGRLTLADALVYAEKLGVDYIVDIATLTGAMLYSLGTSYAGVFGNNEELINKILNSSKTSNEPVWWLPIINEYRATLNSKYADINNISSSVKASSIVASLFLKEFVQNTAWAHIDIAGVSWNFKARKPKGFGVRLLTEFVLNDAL

[7] = target: Lysosomal acid glucosylceramidase (Homo sapiens, UniProt P04062); experiment: Dose response cell-based high throughput screening assay to identify enhancers of beta-glucosidase activity. [Related pubchem assays: 784 ]; assay type: functional
Chain of Lysosomal acid glucosylceramidase (P04062 whole entry): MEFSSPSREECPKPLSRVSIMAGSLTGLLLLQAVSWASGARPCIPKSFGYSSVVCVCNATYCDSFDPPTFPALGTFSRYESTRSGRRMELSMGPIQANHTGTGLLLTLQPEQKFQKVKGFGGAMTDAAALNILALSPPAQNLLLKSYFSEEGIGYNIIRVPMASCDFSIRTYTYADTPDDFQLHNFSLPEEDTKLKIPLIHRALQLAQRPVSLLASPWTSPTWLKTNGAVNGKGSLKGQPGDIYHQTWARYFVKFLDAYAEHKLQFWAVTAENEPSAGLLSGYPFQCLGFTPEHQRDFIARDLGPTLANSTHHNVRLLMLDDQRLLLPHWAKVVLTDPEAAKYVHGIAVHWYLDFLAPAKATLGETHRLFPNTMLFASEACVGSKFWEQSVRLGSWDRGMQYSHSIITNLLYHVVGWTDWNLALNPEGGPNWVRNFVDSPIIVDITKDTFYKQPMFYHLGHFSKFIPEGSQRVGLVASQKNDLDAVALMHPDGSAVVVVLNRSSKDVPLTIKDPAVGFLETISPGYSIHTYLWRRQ

[8] = target: Luciferin 4-monooxygenase (Photinus pyralis, UniProt P08659); experiment: Counter Screen for Luciferase-based Assay Positives. [Related pubchem assays: 620, 618, 411 ]
Chain of Luciferin 4-monooxygenase (P08659 whole entry): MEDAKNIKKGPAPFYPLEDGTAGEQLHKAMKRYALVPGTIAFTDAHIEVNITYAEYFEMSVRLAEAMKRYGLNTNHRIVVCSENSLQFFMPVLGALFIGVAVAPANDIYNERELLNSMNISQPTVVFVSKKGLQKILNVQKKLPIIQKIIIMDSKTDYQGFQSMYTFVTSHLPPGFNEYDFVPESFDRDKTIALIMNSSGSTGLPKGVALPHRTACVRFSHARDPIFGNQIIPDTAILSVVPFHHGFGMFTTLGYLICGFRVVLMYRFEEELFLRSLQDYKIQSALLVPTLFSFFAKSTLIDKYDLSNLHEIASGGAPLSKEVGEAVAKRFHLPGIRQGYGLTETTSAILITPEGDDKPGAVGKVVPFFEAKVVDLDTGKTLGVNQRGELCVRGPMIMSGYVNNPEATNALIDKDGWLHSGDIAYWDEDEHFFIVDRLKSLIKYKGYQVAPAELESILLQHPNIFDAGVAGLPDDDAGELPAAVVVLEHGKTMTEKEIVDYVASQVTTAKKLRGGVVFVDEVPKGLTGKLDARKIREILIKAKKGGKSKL

[9] = test system: HT-1080; experiment: HT1080 cell viability loss – fluorescence readout (AID 620); assay type: functional, cell-based; conditions: Homo sapiens
[10] = Late stage assay provider results from the probe development effort to identify selective inhibitors of heat shock protein 90 (HSP90): Absorbance-based cell proliferation assay in SKBR3 cells.; assay type: functional; conditions: SK-BR-3
[11] = viability loss in HEK293 kidney cells – cell-based, cherry-picks, set 5, cytotoxicity control, dose response (AID 1053117); assay type: functional
[12] = Late stage assay provider results from the probe development effort to identify selective inhibitors of heat shock protein 90 (HSP90): Absorbance-based cell proliferation assay in MCF7 cells.; assay type: functional
[13] = blockers of FN fibrillogenesis by fibroblasts – AH1F cells, Alexa488-FN fluorescence, cherry-picks, dose response (AID 1035475); assay type: functional, cell-based
[14] = target: Cytochrome P450 2C9 (Homo sapiens, UniProt P11712); conditions: Potency
Chain of Cytochrome P450 2C9 (P11712 whole entry): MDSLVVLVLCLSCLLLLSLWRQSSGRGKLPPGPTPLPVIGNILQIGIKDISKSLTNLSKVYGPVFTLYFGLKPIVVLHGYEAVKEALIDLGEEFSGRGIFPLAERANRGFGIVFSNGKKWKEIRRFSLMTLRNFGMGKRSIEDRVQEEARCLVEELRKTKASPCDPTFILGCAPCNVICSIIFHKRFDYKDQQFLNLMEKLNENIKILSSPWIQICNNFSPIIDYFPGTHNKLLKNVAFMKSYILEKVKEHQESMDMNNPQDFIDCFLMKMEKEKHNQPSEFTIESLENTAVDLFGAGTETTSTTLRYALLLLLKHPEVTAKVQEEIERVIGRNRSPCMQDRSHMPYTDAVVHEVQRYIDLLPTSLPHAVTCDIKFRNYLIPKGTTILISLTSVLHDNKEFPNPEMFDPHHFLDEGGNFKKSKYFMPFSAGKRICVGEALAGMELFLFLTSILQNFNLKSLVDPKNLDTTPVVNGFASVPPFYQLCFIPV

[15] = target: T3, Tyrosine-protein phosphatase non-receptor type 7 (Homo sapiens, UniProt P35236); assay type: functional
T3 sequence (P35236 whole entry): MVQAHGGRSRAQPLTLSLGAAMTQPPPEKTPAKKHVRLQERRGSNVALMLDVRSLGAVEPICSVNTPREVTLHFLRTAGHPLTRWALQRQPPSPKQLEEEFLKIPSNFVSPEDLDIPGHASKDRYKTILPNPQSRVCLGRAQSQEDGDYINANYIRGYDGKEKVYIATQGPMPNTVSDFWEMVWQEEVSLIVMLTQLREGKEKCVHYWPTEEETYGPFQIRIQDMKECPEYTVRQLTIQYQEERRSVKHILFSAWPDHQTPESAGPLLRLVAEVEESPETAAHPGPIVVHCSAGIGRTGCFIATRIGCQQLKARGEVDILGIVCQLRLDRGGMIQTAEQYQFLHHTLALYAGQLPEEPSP

[16] = target: Glyceraldehyde-3-phosphate dehydrogenase (Homo sapiens, UniProt P04406)
Chain of Glyceraldehyde-3-phosphate dehydrogenase (P04406 whole entry): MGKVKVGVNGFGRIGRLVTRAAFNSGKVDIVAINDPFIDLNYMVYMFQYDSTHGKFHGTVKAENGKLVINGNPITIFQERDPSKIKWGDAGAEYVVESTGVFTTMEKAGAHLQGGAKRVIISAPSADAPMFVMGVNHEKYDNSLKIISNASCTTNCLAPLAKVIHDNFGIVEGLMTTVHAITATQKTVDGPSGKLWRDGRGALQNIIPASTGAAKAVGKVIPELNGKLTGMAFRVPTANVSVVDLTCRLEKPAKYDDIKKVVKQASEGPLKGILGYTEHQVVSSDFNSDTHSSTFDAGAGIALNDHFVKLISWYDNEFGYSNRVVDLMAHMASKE

[17] = target: Heat shock cognate 71 kDa protein (Homo sapiens, UniProt P11142); experiment: In Vitro Hsc70 Dose Response Fluorescence Polarization Assay. [Related pubchem assays: 1072 ]
Chain of Heat shock cognate 71 kDa protein (P11142 whole entry): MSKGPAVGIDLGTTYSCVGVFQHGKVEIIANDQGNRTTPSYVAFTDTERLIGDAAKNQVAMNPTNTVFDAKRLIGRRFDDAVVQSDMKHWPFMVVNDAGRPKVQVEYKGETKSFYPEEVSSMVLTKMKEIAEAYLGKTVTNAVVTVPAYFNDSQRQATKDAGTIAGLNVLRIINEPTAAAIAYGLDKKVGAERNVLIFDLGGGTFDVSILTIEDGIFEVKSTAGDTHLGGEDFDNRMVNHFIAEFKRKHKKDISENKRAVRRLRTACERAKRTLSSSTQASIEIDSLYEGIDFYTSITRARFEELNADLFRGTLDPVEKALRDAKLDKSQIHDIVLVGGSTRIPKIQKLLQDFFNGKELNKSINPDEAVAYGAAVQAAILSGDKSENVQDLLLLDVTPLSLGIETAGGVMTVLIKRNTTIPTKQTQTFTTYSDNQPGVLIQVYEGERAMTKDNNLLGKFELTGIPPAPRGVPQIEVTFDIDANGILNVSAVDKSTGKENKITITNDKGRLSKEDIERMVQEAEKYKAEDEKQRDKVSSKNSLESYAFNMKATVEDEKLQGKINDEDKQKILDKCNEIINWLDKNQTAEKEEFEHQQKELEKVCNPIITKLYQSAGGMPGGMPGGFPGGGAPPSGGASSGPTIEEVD

[18] = target: Heat shock 70 kDa protein 1A (Homo sapiens, UniProt P0DMV8); experiment: inhibition of Hsp70 binding activity – biochemical, fluorescence polarization, SAR follow-up (AID 1072)
Chain of Heat shock 70 kDa protein 1A (P0DMV8 whole entry): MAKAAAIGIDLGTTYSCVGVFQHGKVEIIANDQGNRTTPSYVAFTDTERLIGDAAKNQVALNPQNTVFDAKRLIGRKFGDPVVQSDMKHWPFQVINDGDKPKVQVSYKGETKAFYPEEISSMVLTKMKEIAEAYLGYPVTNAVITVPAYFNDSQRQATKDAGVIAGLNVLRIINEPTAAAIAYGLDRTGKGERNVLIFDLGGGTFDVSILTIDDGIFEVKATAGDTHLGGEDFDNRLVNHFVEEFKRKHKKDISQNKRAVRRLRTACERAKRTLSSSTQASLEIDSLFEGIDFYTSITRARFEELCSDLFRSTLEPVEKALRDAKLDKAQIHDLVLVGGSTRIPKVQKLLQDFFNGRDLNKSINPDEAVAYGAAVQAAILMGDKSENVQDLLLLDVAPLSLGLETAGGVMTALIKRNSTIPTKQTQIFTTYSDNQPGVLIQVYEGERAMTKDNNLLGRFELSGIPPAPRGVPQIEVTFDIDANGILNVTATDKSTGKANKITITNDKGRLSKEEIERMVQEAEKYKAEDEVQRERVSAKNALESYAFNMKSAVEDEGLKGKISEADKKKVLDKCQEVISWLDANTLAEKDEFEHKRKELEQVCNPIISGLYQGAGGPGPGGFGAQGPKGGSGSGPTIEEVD

[19] = target: T4, Dual specificity protein phosphatase 6 (Rattus norvegicus, UniProt Q64346)
T4 sequence (Q64346 whole entry): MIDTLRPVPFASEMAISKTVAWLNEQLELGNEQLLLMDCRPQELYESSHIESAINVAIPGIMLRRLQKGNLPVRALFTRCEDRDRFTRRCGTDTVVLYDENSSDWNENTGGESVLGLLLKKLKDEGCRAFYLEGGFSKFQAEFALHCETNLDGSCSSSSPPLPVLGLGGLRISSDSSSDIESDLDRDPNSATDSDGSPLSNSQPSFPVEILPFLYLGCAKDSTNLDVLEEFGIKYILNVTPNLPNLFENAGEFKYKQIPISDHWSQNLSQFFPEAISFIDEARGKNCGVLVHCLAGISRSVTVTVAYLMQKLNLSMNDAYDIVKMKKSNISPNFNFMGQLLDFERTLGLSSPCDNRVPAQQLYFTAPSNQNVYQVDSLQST

[20] = target: T4, Dual specificity protein phosphatase 6; assay type: functional
[21] = cells; assay type: functional, cell-based
[22] = Luminescence Cell-Based Dose Response HTS to Identify Inhibitors of 5'UTR Stem-Loop Driven Prion Protein mRNA Translation in H4 Neuroglioblastoma Cells. [Related pubchem assays: 1827 (Project Summary), 1813 (Primary HTS)]; assay type: functional
[23] = Luminescence-based counterscreen assay for KLF5 inhibitors: dose response cell-based high throughput screening assay to identify cytotoxic compounds using the IEC-6 intestinal epithelial cell line. [Related pubchem assays: 1700 (Primary screen.), 1834 (Confirmation screen.), 1858 (Summary AID.), 1905 (Counterscreen.)]; assay type: functional
[24] = cells; assay type: functional, cell-based; remark: listed apart in the source
[25] = THP-1 cell cytotoxicity, dose response, cytotoxicity control for non-replicating M. tuberculosis project (AID 489025); assay type: functional
[26] = HepG2 cell cytotoxicity, dose response, cytotoxicity control for non-replicating M. tuberculosis project (AID 489018); assay type: functional; conditions: Mycobacterium tuberculosis
[27] = Vero E6 cell cytotoxicity, dose response, cytotoxicity control for non-replicating M. tuberculosis project, secondary assay (AID 492998); assay type: functional, VeroE6; conditions: Vero C1008
[28] = HEK-293T viability loss after treatment – luminescence, T-cell screen hits, cytotoxicity control for TCR NF-kB inhibitor project, dose response (AID 489026); assay type: functional, cell-based;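 note: cells exposed to compound about 14 hours before the viability readout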
[29] = target: T5, Microphthalmia-associated transcription factor (Homo sapiens, UniProt O75030); experiment: reducers of TRPM1 reporter luminescence, concentration series – cell-based, SK-MEL-5, cherry-picked, set 3, MITF inhibitor project, dose response (AID 493073); assay type: functional;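 note: SK-MEL-5 melanoma cells with luciferase driven by the MITF target TRPM1 promoter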
T5 sequence (O75030 whole entry): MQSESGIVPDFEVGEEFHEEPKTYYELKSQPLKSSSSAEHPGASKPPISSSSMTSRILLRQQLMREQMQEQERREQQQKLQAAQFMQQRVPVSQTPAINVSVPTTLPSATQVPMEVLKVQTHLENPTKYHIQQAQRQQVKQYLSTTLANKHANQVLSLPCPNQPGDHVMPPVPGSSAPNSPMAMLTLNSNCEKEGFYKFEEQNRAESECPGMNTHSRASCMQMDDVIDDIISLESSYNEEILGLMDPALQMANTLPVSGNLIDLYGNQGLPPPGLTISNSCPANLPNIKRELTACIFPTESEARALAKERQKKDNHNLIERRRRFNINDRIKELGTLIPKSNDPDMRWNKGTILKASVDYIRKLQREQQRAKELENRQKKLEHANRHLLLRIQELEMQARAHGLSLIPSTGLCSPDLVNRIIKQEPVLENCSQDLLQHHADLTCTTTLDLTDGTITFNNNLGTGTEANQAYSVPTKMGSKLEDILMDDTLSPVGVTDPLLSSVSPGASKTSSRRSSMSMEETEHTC

[30] = test system: HEK293; experiment: EBV LMP1 TES2 canonical NF-kB signalling blockers – cell-based, HEK293, luciferase, cherry-pick, dose response (AID 588343); assay type: functional; conditions: Homo sapiens
[31] = test system: INS1; experiment: INS-1E survival protection against cytokine death – cell-based, luminescence, retest, dose response (AID 449756); assay type: functional; conditions: Rattus norvegicus;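 note: cell death triggered by IL-1 beta plus TNF-alpha plus IFN-gamma mixture; protective hits raise ATP signal compared with cytokine alone wells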
[32] = target: T6, Estrogen receptor (Homo sapiens, UniProt P03372); experiment: ERα coactivator recruitment enhancers – biochemical, TR-FRET, ERα LBD, dose response (AID 737)
T6 sequence (P03372 whole entry): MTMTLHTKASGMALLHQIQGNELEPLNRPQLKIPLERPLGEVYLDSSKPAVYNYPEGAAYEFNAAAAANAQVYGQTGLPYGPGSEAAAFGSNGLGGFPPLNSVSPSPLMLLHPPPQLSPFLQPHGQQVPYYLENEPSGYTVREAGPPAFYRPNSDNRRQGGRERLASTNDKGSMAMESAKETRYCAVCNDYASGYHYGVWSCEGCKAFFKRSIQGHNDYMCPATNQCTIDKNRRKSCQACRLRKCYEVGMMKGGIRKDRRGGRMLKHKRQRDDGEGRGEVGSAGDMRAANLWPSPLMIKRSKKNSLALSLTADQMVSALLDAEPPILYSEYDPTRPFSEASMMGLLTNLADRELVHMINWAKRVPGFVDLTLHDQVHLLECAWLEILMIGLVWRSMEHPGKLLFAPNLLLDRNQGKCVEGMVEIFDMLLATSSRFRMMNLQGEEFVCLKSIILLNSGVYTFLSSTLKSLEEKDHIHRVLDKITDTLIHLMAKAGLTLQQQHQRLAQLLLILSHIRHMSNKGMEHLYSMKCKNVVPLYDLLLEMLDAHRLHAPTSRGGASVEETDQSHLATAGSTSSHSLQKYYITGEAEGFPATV

[33] = target: Mothers against decapentaplegic homolog 3 (Homo sapiens, UniProt P84022); experiment: blockers of Smad3 complex formation in lysate – cell lysate, secondary confirmation, chemiluminescent ELISA, HEK293 lysate, dose response (AID 1058); assay type: functional
Chain of Mothers against decapentaplegic homolog 3 (P84022 whole entry): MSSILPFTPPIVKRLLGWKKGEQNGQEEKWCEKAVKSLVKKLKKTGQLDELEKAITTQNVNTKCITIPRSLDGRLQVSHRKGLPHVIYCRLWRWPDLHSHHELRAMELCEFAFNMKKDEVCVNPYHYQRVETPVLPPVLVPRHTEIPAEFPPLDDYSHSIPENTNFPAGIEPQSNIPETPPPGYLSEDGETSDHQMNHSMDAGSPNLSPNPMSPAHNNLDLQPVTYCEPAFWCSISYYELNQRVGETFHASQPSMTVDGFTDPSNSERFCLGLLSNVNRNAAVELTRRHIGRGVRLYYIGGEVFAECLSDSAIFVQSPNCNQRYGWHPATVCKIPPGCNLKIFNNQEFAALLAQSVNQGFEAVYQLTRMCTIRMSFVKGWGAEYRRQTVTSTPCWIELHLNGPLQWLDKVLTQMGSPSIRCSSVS

Cc1cccc(C)c1OCC(O)Cn1c2ccccc2c2ccccc21 (stereo not drawn)
EC50 [1]: 6.75 µM (active)
EC50 [2]: 9.21 µM (active)
EC50 [3]: 3.98 µM (active)
EC50 [4]: 7.9 µM (active)
IC50 [5]: > 69.5 µM (inactive)

O=C(CN1C(=O)c2ccccc2S1(=O)=O)NCCSC1CCCCC1
IC50 [6]: 9.32 µM (active)
EC50 [7]: > 10 µM (not active)

CC(C)CNC(=O)c1coc(=O)c(Br)c1
EC50 [8]: 1.83 µM (active)
EC50 [9]: 20.4 µM (active)
IC50 [10]: 22 µM (inactive)
AC50 [11]: > 52 µM (inactive)
IC50 [12]: 7.5 µM (active)
AC50 [13]: 23.9 µM (active)

CCOC(=O)OCC1OC(c2ccccc2)C=CC1Oc1ccc(F)cc1C (stereo not drawn)
AC50 [14]: 3.16 µM (inconclusive)

CCCCOC(=O)c1ccc2c(c1)C1C=CCC1C(C(=O)O)N2 (stereo not drawn)
IC50 [15]: 10.4 µM (active)
IC50 [16]: 76.6 µM (active)
IC50 [17]: > 100 µM (not active)
IC50 [18]: 63.3 µM (active)
IC50 [19]: 41.8 µM (active)
IC50 [20]: 4.02 µM (active)

COc1ccc(N/N=C/c2c(C(=O)O)ccc3ccccc23)cc1
EC50 [21]: 9.66 µM (active)
EC50 [22]: 9.27 µM (active)
IC50 [23]: 37 µM (not active)
EC50 [24]: > 350 µM (not active)
CC50 [25]: 0.364 µM (active)
CC50 [26]: 4.9 µM (active)
CC50 [27]: 2 µM (active)
IC50 [28]: > 80 µM (inactive)
AC50 [29]: 5.11 µM (active)
AC50 [30]: 4.56 µM (active)
AC50 [31]: 0.786 µM (active)

C[C@]12CC[C@@H]3c4ccc(O)cc4C(=O)C[C@H]3[C@@H]1CC[C@@H]2O
EC50 [32]: 12.5 µM (active)

O=C(O)CCc1ccc(O)c(O)c1 [DIHYDROCAFFEIC ACID]
IC50 [33]: > 50 µM (not active)
